For orientation: IC50 means the midpoint of a concentration-inhibition curve. In general, inhibition refers to the drop in the measured response relative to a control, in per cent.

One experiment deals with T1, Aurora-A kinase (Homo sapiens, UniProt O14965).
T1 construct: purchased Invitrogen (Carlsbad, CA, USA)
T1 sequence (O14965 1-403): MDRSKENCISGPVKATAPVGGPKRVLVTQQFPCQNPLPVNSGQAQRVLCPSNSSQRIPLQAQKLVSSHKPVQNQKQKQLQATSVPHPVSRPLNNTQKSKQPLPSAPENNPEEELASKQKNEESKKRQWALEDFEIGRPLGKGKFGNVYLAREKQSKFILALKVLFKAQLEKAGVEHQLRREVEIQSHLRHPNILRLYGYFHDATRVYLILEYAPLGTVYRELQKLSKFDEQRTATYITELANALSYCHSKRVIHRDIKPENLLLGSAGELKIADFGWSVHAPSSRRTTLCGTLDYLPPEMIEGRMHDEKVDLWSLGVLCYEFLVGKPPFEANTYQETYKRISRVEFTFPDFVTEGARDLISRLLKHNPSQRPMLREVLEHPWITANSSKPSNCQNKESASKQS
Kind of experiment: FRET-based Z'-LYTE kinase enzyme inhibition assay. It counts as biochemical. Particulars: for inhibition at 10 µM: read-out: % Inhibition at 10 µM.

In another experiment the test system is MDA-MB-231 cells. The experiment can be described thus: MTT cytotoxicity/anti-proliferation assay, MDA-MB-231. Particulars: for IC50: MDA-MB-231, 72 h; for inhibition at 25 µM: MDA-MB-231, 25 µM; for inhibition at 25 µM / inhibition at 50 µM: 72 h; for inhibition at 50 µM: MDA-MB-231, 50 µM. It counts as cell-based, human. The protocol:
(§1) The human cell-lines triple negative breast adenocarcinoma MDA-MB-231, Pancreas adenocarcinoma PANC1, ductal breast carcinoma T-47D and fibroblasts were preserved and expanded in DMEM medium, while the prostate adenocarcinoma PC-3 cells were cultured in RPMI-1640 growth medium. All growth media were supplemented with 10% heat-inactivated fetal bovine serum (FBS). Cells were maintained under standard culture conditions at 37 °C, 5% CO2 in a humidified incubator. At 80% confluency, cells were washed with 5 mL phosphate buffer saline (1X PBS), then incubated for 4 min with 2–3 mL Trypsin-EDTA 0.25% in order to obtain suspended cells and collect them in a known volume of fresh media for cell count. Cells were counted using conventional hemocytometer and trypan blue dye method.
(§2) The five potent hits that have shown anti-Aurora-A Kinase inhibition percentages above 51% at 10 μM upon conducting the kinase enzyme Inhibition assay (Table 5) were further validated using MTT cytotoxicity Assay. This assay includes 3-(4,5-Dimethylthiazol-2-yl)-2,5-diphenyl tetrazolium bromide (MTT) dye, which is a yellowish tetrazole reduced by viable cells into formazan purple color, which detects the normal mitochondrial role in viable cells. In 96-well coated flat bottom microplates, 100 μL cell suspension of PANC1 or T-47D cells were seeded at a density of 7000 cell/well, and 6000 cell/well for MDA-MB-231, PC-3, or fibroblasts, and incubated under the same conditions at 37 °C. After 24 h, each well was treated with the intended drug concentration diluted in 200 μL fresh media after removal of the old 100-μL media. After 72 h incubation, drug-containing media was aspirated and on each well 100 μL phenol-red free media and 15-μL MTT solution (5 mg/mL (wt/vol) PBS). After 3 h of dark incubation at 37 °C, MTT and media were carefully withdrawn from each well, and 200 μL/well DMSO were added. Colorimetric absorbance (OD) was measured at 570 nm wavelength using 96-well plate reader (Tecan-Sunrise, Männedorf, Switzerland).
(§3) The five compounds were prepared in a stock concentrate of 10 mM using cell culture grade DMSO to be utilized in MTT assay. The cytotoxicity of each compound was initially screened on cancer cell-lines at two concentrations: 50 μM and 25 μM in duplicates. […] The safety index for the compounds with specified IC50 values was evaluated via determining their IC50 values against normal Fibroblast cells. It is noteworthy to mention that DMSO concentration was constant on all the wells (i.e., (0.5% v/v or 1 μL/200 μL) per well), for the treated and the control ones. IC50 values were calculated using nonlinear regression of the dose–response curves using GraphPad Prism software 7.03.

The next experiment deals with PANC1 cells. Kind of experiment: MTT cytotoxicity/anti-proliferation assay, PANC1. It counts as cell-based, human. Particulars: for IC50: Panc1, 72 h; for inhibition at 25 µM / inhibition at 50 µM: PANC-1, 72 h; for inhibition at 25 µM: Panc1, 25 µM; for inhibition at 50 µM: Panc1, 50 µM. Here is the method:
as §1, §2, §3

A further experiment deals with T-47D cells. The experiment can be described thus: MTT cytotoxicity/anti-proliferation assay, T-47D. It is filed as cell-based. Particulars: Homo sapiens, T47D, 72 h. The protocol: as §1, §2, §3
In a further experiment the test system is PC-3 cells. Kind of experiment: MTT cytotoxicity/anti-proliferation assay, PC-3. It counts as cell-based. The following applies: Homo sapiens; for IC50: PC-3, 72 h; for inhibition at 25 µM: PC-3, 25 µM; for inhibition at 25 µM / inhibition at 50 µM: 72 h; for inhibition at 50 µM: PC-3, 50 µM. Here is the method: as §1, §2, §3
For a further experiment, the system named is Fibroblasts. The experiment can be described thus: MTT cytotoxicity assay on normal fibroblasts (safety index). It counts as cell-based. Particulars: Homo sapiens, Fibroblast, 72 h. The protocol: as §1, §2, §3
For orientation: Tetrazolium assays rely on reduction of a dye to a coloured formazan, in cell work by metabolically active cells.

The test system of experiment [1] is PANC1, PC-3, T-47D and MDA-MB-231 cancer cells. Kind of experiment: MTT anti-proliferative assay, four cancer cell lines together. It counts as cell-based. The following applies: Homo sapiens; 72 h of incubation; read-out: IC50 values against PANC1, PC-3, T-47D and MDA-MB-231 (range over cell lines). The protocol: The human cell-lines triple negative breast adenocarcinoma MDA-MB-231, Pancreas adenocarcinoma PANC1, ductal breast carcinoma T-47D and fibroblasts were preserved and expanded in DMEM medium, while the prostate adenocarcinoma PC-3 cells were cultured in RPMI-1640 growth medium. All growth media were supplemented with 10% heat-inactivated fetal bovine serum (FBS). Cells were maintained under standard culture conditions at 37 °C, 5% CO2 in a humidified incubator. […] Cells were counted using conventional hemocytometer and trypan blue dye method. […] In 96-well coated flat bottom microplates, 100 μL cell suspension of PANC1 or T-47D cells were seeded at a density of 7000 cell/well, and 6000 cell/well for MDA-MB-231, PC-3, or fibroblasts, and incubated under the same conditions at 37 °C. After 24 h, each well was treated with the intended drug concentration diluted in 200 μL fresh media after removal of the old 100-μL media. […] Colorimetric absorbance (OD) was measured at 570 nm wavelength using 96-well plate reader (Tecan-Sunrise, Männedorf, Switzerland). […] The safety index for the compounds with specified IC50 values was evaluated via determining their IC50 values against normal Fibroblast cells. […] IC50 values were calculated using nonlinear regression of the dose–response curves using GraphPad Prism software 7.03.

For experiment [2], the system named is xenograft models of various cancer types. Set-up: method as in PMID 19369091, PMID 14981513, PMID 18160664. The following applies: cited from earlier work.

SMILES strings stand for the structures. Where “and” joins values, the source holds several entries; their conditions need not be identical. Equal entries are not always repeated. Where two headings read alike, the source gives them in different places.

Method for Aurora-A kinase: This bioassay was conducted using Z′-LYTE® kinase assay (Invitrogen, Carlsbad, CA, USA) [68, 69]. This biochemical assay depends on fluorescence emission as detection method utilizing a synthetic fluorescence resonance energy transfer (FRET) peptide with two fluorophores: coumarin that work as donor and fluorescein as acceptor [69]. Each hit or compound was dissolved in DMSO to form 10 mM stock solution. Hits were screened at 10 μM concentration. The bioassay was performed in black 384-well plate. For each assay, 100 nL of tested compound stock solution (10 mM) was mixed with 2.4 μL kinase buffer, 5 μL (peptide substrate/Aurora-A Kinase) mixture, and 2.5 μL ATP solution.
The tests were conducted in duplicates.

`COc1ccc(C(=O)C2=NON3O[C@@]23C(=O)c2ccc(OC)cc2)cc1` (some centres unmarked) [Hit 85]: the 50% inhibitory concentration (IC50) against Aurora-A kinase (IC50, 0.1–100 μM, duplicates, nonlinear regression) was 4.29 µM and 4.3 µM; in the experiment with MDA-MB-231 cells (Homo sapiens), 11 ± 0.43 µM; in the experiment with PANC1 cells (Homo sapiens, PANC-1, 72 h), 3.5 µM; in the experiment with PANC1 cells, 3.54 ± 0.11 µM; with T-47D cells, 8.8 ± 0.74 µM; in the experiment on PC-3 cells, 8.2 ± 1.4 µM. Moreover, the results for the IC50 (with Fibroblasts; in experiment [1]) were 27.5 ± 1.5 µM and 3.5 to 11 µM, respectively. Further, on Aurora-A kinase (dose-response curve, GraphPad Prism), the “Hill Slope” value is recorded as 1.70. Besides, on Aurora-A kinase, the inhibition at 10 µM turned out to be 56%. Besides, the inhibition at 25 µM with MDA-MB-231 cells (Homo sapiens) is 82.3 ± 0.006%; in the experiment on PANC1 cells (Homo sapiens), 92.97 ± 0.004%; with T-47D cells, 84.6 ± 0.002%; in the experiment on PC-3 cells, 77 ± 0.007%; in the experiment on Fibroblasts it was 45.4 ± 0.05%. The inhibition at 50 µM in the experiment on MDA-MB-231 cells (Homo sapiens) worked out at 87.7 ± 0.001%; with PANC1 cells (Homo sapiens), 94.1 ± 0.001%; with T-47D cells it was 86 ± 0.002%; with PC-3 cells, 87.3 ± 0.003%; with Fibroblasts, 83.4 ± 0.01%.

As for `COc1cc(/C=N/c2ccc3ccccc3c2)ccc1O` [Hit 112], the inhibition at 10 µM on Aurora-A kinase (10 µM, duplicates, Z'-LYTE) is 55%. In addition, the IC50 in the experiment on MDA-MB-231 cells (Homo sapiens) was 17.9 ± 1.4 µM; in the experiment with PANC1 cells (Homo sapiens, PANC-1, 72 h), more than 50 µM; with T-47D cells, more than 50 µM; in the experiment with PC-3 cells, more than 50 µM; in the experiment with Fibroblasts, 15.1 ± 3 µM. Also, the inhibition at 25 µM in the experiment with MDA-MB-231 cells (Homo sapiens) worked out at 63.3 ± 0.021%; with PANC1 cells (Homo sapiens), 16 ± 0.02%; in the experiment with T-47D cells, 34.7 ± 0.012%; in the experiment on PC-3 cells, 19.2%; in the experiment with Fibroblasts it was 53.9 ± 0.018%. Besides, the inhibition at 50 µM with MDA-MB-231 cells (Homo sapiens) amounted to 74.7 ± 0.012%; with PANC1 cells (Homo sapiens), 22.5 ± 0.012%; in the experiment on T-47D cells it was 48.11 ± 0.003%; with PC-3 cells, 32.7%; in the experiment on Fibroblasts, 54.3 ± 0.003%.

Take `Cc1cc(Nc2cc(N3CCN(C)CC3)nc(Sc3ccc(NC(=O)C4CC4)cc3)n2)[nH]n1` [Tozasertib/(VX-680), Tozasertib, reference compound]: the IC50 was approximately 7.6 µM with MDA-MB-231 cells (Homo sapiens); 7.7 ± 0.65 µM in the experiment with MDA-MB-231 cells; approximately 7.6 µM in the experiment on PANC1 cells (Homo sapiens, PANC-1, 72 h); 17.9 ± 1.64 µM in the experiment with T-47D cells; 21.4 ± 1.6 µM with PC-3 cells; 9.2 ± 0.6 µM with Fibroblasts. For the same molecule, the inhibition at 25 µM is 81 ± 0.008% with MDA-MB-231 cells (Homo sapiens); 80.9 ± 0.005% in the experiment with PANC1 cells (Homo sapiens); 53.4 ± 0.02% in the experiment on T-47D cells; 49.5 ± 0.006% in the experiment with PC-3 cells; 85 ± 0.006% in the experiment with Fibroblasts. Further, the inhibition at 50 µM in the experiment on MDA-MB-231 cells (Homo sapiens) came out at 87 ± 0.007%; in the experiment with PANC1 cells (Homo sapiens), 89.3 ± 0.015%; in the experiment with T-47D cells, 80.9 ± 0.01%; in the experiment on PC-3 cells, 68.7 ± 0.011%; in the experiment on Fibroblasts, 89 ± 0.005%. Besides, the “reduced the tumor size” value in experiment [2] is recorded as 22–98%.

The record behind these values is paper PMC7766225, “Structure-Based Discovery and Bioactivity Evaluation of Novel Aurora-A Kinase Inhibitors as Anticancer Agents via Docking-Based Comparative Intermolecular Contacts Analysis (dbCICA)” (Molecules, 2020).
